From US20230346901A1, “METHODS AND VACCINE COMPOSITIONS TO TREAT CANCERS” (priority 2019, published 2023)
Ends that are not written are not given here.

Experiments:
normal spleen cells = assay: Electron microscopy ultrastructural analysis, normal spleen cells; assay type: cell-based, mouse; conditions: normal spleen cells exposed to RT53 (data not shown)
Procedure: Samples were fixed in 3% glutaraldehyde in phosphate buffer, pH 7.4 for 1 hour, washed, post-fixed with 1% osmium tetroxide in 0.1 M phosphate buffer and then gradually dehydrated in 70, 90 and 100% ethanol. After 10 min in a 1:2 mixture of epoxy propane and epoxy resin and 10 min in epon, samples were embedded in epoxy resin and polymerized at 60° C. for 24 h. After polymerisation, ultrathin sections of 90 nm were cut with an ultra-microtome (Reichert ultracut S), stained with uranyl acetate and Reynold's lead and observed with a transmission electron microscope (JEOL 1011). Acquisition was performed with a Gatan Orius 1000 CCD camera.
To test the antileukemic properties of RT53, we first exposed human all-trans retinoic acid (ATRA)-sensitive (NB4) and ATRA-resistant (UF-1) acute promyelocytic leukemia (APL) cells as well as mouse APL spleen blast cells derived from hMRP8-PML-RARA transgenic mice9 to increasing concentrations of RT53.

[1] = test system: spleen cells from healthy mice; assay type: cell-based, mouse; conditions: up to the highest concentration tested, 20 h
Procedure: FIG. 1: RT53 treatment increases APL mice survival. (A) The indicated cells were left untreated or exposed to increasing concentrations of RT53 for 20 h. Cell death induced by peptide treatment was measured by lactate dehydrogenase (LDH) release. Data are means±s.e.m. (n=3). (B) APL spleen cells were exposed to 5 μM of RT53 in the presence or absence of 50 μM zVAD-fmk or 50 μM Necrostatin-1 (Nec-1) for 3 h. Necrotic cell death was monitored by lactate dehydrogenase (LDH) release from cells into the culture medium. The obtained values were normalized to those of the maximum LDH released (completely lysed) control. Data are means±s.e.m. (n=3). (C) 104 APL blasts were inoculated intravenously (i.v.) into FVB/N mice at day zero. […] Survival curves were analyzed with the Mantel-Cox test. […] Survival curves were analyzed with the Mantel-Cox test.
Release of lactate dehydrogenase (LDH) and ATP in the culture medium were assessed with the CytoTox 96 Non-Radioactive Cytotoxicity Assay and Enliten ATP Assay, respectively (Promega, Madison, WI, USA). HMGB1 release in the culture medium was assessed with the HMGB1 ELISA kit (IBL International, Hamburg, Germany). […]

[2] = Organ toxicity in peptide-treated APL mice; assay type: in vivo, FVB/N mice; conditions: either treatment schedule (data not shown)
Procedure: APL blasts (provided by Drs. M. Bishop and S. Kogan, UCSF, USA) origin from the spleen of mice bearing the human PML-RARA cDNA construct driven by a myeloid linage specific promoter (hMRP8) in the FVB/N inbred strain of mice. For amplification, cells (1×105 or 1×106) were suspended in PBS and transplanted by intravenous (i.v) tail injection (200 uL) into female syngeneic recipient mice (5-6 weeks old). Establishment of leukemia was assessed by a decrease in blood platelet counts approx. 3 weeks after graft. Spleen cells from a primary recipient were collected, washed, re-suspended in PBS and injected (10^4 cells/mouse; 200 uL) into the tail veins of male FVB/N mice (7-8 weeks old) for experiments. For direct treatment experiments, mice were treated daily or every other day (i.p) with normal saline, RT53 or RT39 at 2.4 mg/kg in normal saline starting from day 10 or day 20 for a total of 7 injections.
To explore the in vivo therapeutic potential of RT53 as a treatment of acute leukemia, we used a well-characterized preclinical APL model bearing the human PML-RARA oncogene which mimics human APL, both in its characteristics and its response to conventional therapeutic drugs such as ATRA and arsenic trioxide^9, 10. In this model, 100% of the syngeneic mice (FVB/N) transplanted with 104 primary recipients' spleen blasts developed an APL and succumbed within 30 days (FIG. 1C).

U2OS cells = assay: Immunogenic cell death markers (HMGB1, ATP release) in U2OS cells; assay type: cell-based
Procedure: ((A) U2OS cells were left untreated or exposed to increasing concentrations of RT39 for 3 h. Extracellular HMGB1 was then measured in the culture supernatant by an ELISA assay. Data are means±s.e.m. (n=3). (B) U2OS cells were left untreated or exposed to increasing concentrations of RT39 for 3 h. Extracellular ATP was then measured in the culture supernatant using an ATP-bioluminescence assay. Data are means±s.e.m. (n=3).
Release of lactate dehydrogenase (LDH) and ATP in the culture medium were assessed with the CytoTox 96 Non-Radioactive Cytotoxicity Assay and Enliten ATP Assay, respectively (Promega, Madison, WI, USA). HMGB1 release in the culture medium was assessed with the HMGB1 ELISA kit (IBL International, Hamburg, Germany).

[3] = U2OS cells, increasing concentrations of RT39, 3 h

| Sequence | cellular integrity by ultrastructural analysis (normal spleen cells) | cell death by LDH release in normal cells [1] | organ toxicity (macroscopic or microscopic) [2] | extracellular ATP release (ATP-bioluminescence) (U2OS cells; [3]) | extracellular HMGB1 release (ELISA) (U2OS cells; [3]) | calreticulin exposure (U2OS cells; stated in figure title only, cells not given) |
| --- | --- | --- | --- | --- | --- | --- |
| RQIKIWFQNRRMKWKKAKLNAEKLKDFKIRLQYFARGLQVYIRQLRLALQGKT [RT53] | No changes in cellular integrity or ruptured cells could be detected | no cell death was detected | No organ toxicity | – | – | – |
| RQIKIWFQNRRMKWKKLQYFARGLQVYIRQLRLALQGKT (Synthetic Fusion protein RT39) [fusion of penetratin with AAC-11 leucine-zipper derived peptide (377-399)] | – | – | – | triggers calreticulin exposure as well as the release of HMGB1 and ATP | triggers calreticulin exposure as well as the release of HMGB1 and ATP | triggers calreticulin exposure |
